# Patent US10406227B2, “Photoactivated molecules for light-induced modulation of the activity of electrically excitable cells and methods of using same” (University of Southern California, priority 2012, dated 2019)
# Tests used:
# [1] = Time-resolved emission spectroscopy (luminescence decay kinetics); type: physicochemical; conditions: degassed dichloromethane; excited 355 nm, monitored 560 nm
# Protocol: Time-resolved emission spectroscopy was used to characterize the MLCT excited state of the D-B-A complex. Luminescence decay kinetics were recorded in degassed dichloromethane. The D-B-A complex was excited at 355 nm with an 8-ns laser pulse and luminescence was monitored at 560 nm. […] For comparison, the MLCT lifetime of the reference complex, [Re(CO)3(bpy)(py)]+, determined under identical experimental conditions, is 550 ns.
# While the rate of intramolecular ET is concentration independent, intermolecular quenching processes vary predictably with concentration. As such, it is possible to separate the two quenching mechanisms and obtain rate constants for each. Time-resolved luminescence measurements at a series of D-B-A concentrations allow a second order intermolecular quenching rate to be determined. As the concentration was increased, shorter lifetimes were recorded in both dichloromethane and acetonitrile.
# This lifetime includes both the natural decay of the photoexcited rhenium as well as quenching through intramolecular electron transfer. […] As the difference in lifetime of the D-B-A and model complex is quite small, these values should be considered upper bounds.
# chromaffin cells = test: Cell-attached membrane perforation test (capacitive charging transient); type: cell-based, mouse; conditions: positive control in pipette; within 5 minutes of gigaseal formation
# Excerpt: FIGS. 5A-5H depict data from various experiments related to characteristics of RubpyC17-loaded cells. […] Inset images shown to the right of trace confirmed proper integration of RubpyC17 in patched cells. FIGS. 5C-5E show the light-induced action potential firing in chromaffin cells was not due to biophysical changes in voltage-gated ion channels as there were no significant changes in current-voltage relationships (C-D) nor in steady-state activation curve (E) in RubpyC17-loaded chromaffin cells before (open circle) or during ([…]) light illumination. […] Peak inward currents from each stimulation jump were plotted against corresponding stimulating voltages (n=6). […] Data from representative cell is shown (n=5). […] Currents resulting from capacitor-like behavior of chromaffin cell membranes during hyperpolarizing jumps to −85 mV from a resting membrane potential of −80 mV were recorded 5 min following giga-seal formation for amphoterecin B (bottom trace) or 10 min following giga-seal formation for RubpyC17 (top trace).
# Finally, to test whether illumination of RubpyC17 incorporated in cell membranes causes nonspecific membrane poration or other damage, 18 μM RubpyC17 was loaded inside a patch pipette and attached to a cell (gigaseal formation) in the cell-attached configuration. […]
SMILES,luminescence (MLCT) lifetime [1] [ns],capacitive charging transient (membrane perforation) (chromaffin cells)
[C-]#[O+].[C-]#[O+].[C-]#[O+].[Re+].c1ccc(-c2ccccn2)nc1.c1ccncc1 [[Re(CO)3(bpy)(py)]+],550,
"C[C@@H]1[C@H](O)[C@@H](C)/C=C/C=C/C=C/C=C/C=C/C=C/C=C/[C@H](O[C@@H]2O[C@H](C)[C@@H](O)[C@H](N)[C@@H]2O)C[C@@H]2O[C@](O)(C[C@@H](O)C[C@@H](O)[C@H](O)CC[C@@H](O)C[C@@H](O)CC(=O)O[C@H]1C)C[C@H](O)[C@H]2C(=O)O [amphotericin B, reference compound]",,a sizable capacitive charging transient
